Laboratory results reported in publication PMC8564633, “SMAC/Diablo controls proliferation of cancer cells by regulating phosphatidylethanolamine synthesis” (Molecular Oncology, 2021).
Non-standard residues stand in square brackets, D forms with d. Residues, ends and D or L forms follow the SMILES beside them. Dmt = Cc1cc(O)cc(C)c1C[C@H](N)C(=O)O; Orn = NCCC[C@H](N)C(=O)O

Each compound was assayed on A549 cells. Details: 24 h.
Format: cell-based, human
Experimental: Cells were seeded in 96‐well cell culture plates (8000/well) and allowed to grow for 48 h. After washing with PBS, cells were fixed with 50% trichloroacetic acid and stained with SRB for 20 min. Excess SRB was removed, and cells were washed with 1% acetic acid. SRB extraction was done using 100 mM Tris‐base, and absorbance at 510 nm was determined using an Infinite M1000 plate reader (Tecan, Männedorf, Switzerland).
Fig. 7 PSD‐interacting peptides bind to PSD, inhibiting its activity, and when cell‐penetrating and mitochondria‐ or nucleus‐targeted, inhibit cell proliferation. […] (B) Inhibition of PSD activity by the 2F3 (●) or 1C11 (○) peptide. PSD activity was measured using the DSB‐3 method. (C‐E) Cell proliferation inhibition following incubation of A549 cells with the indicated mitochondria‐ or nucleus‐targeted peptides for 24 h in a serum‐free medium, and cell proliferation was assayed using the SRB method. Results are the means ± SEM (n = 3). (F) A549 cells were incubated for 90 min with 5 µM of the mitochondria‐ or nucleus‐targeted FITC‐labelled peptides, immunostained with anti‐SMAC antibodies and with DAPI and visualized by confocal microscope for subcellular localization. (a) and (b) present higher magnification, white arrows point to possible nuclear localization of the peptide, and blue arrows to its colocalization with mitochondria marker (n = 3). Scale bars represent 20, 10 µm as indicated.
Table S4. Effects of peptide identified as interacting with PSD or their interaction with SMAC/Diablo is prevented in the presence of PSD on A549 lung cancer cell growth A549 cells were seeded in 96-well plate (7000 cells/well). After 24 h cells were incubated without or with the indicated peptide concentration for 24 h in a serum-free medium. Then, cells were washed with PBS, and analyzed for cell growth using the SRB method. Results are the mean ± SD (n=3). Peptide sequence, its identification manner, based on interacting with PSD or their interaction with SMAC/Diablo is prevented in the presence of PSD are shown. In addition, the peptides are presented with the cell penetrating peptide targeting to the mitochondria or the nucleus. The results are presented as the concentration required for 50% inhibition (IC50).
No Peptide spot and Protein/Function Peptide and Cellular IC50 […]
ALSTSSPIPSVPQSQ transcriptional coactivator 2 Mitochondria (A) […]
AQPQTGSGAS truncated poly Q, transcriptional H-(D-Arg)–Dmt–Orn–Phe- 2F3 >100 Interacting with PSD coactivator for NOTCH proteins, Mitochondria promotes proliferative signaling R-{D-Arg}-RK- 2F3 28.9±5.2 during neurogenesis (Nucleus). Nucleus […]
PNQSSRAFQGTDHS transcriptional coactivator 2 Mitochondria
SDLAFDFLSQQ truncated poly Q, A transcriptional D-Arg–Dmt–Orn–Phe-2I8 66.8±4.7 Identified by PSD coactivator for NOTCH proteins, Mitochondria preventing SMAC promotes proliferative signaling R-{D-Arg}-RK-2I8 >100 interaction with it during neurogenesis (Nucleus). Nucleus […]
ALLTSGTSDPRARV protease promotes cell death either Mitochondria […]
TYGTPSLWARL by direct binding to IAPs proteins D-Arg–Dmt–Orn–Phe -1C11 89.3±5.49 Interacting with PSD leading to increased caspase Mitochondria activity or caspase-independent and serine protease activity-dependent R-{D-Arg}-RK- 1C11 66.5±3.9 mechanism. (Mitochondrion Nucleus intermembrane space). 1C11- R-{D-Arg}-RK 30.0±3.8 […]
ELYRMSTYSTFPAG Acts as an E3 ubiquitin-protein Mitochondria
VPVSERSLARA ligase, regulator of NF-kappa-B 1E14- D-Arg–Dmt–Orn–Phe >100 Identified by PSD signaling, apoptosis, cell Mitochondria preventing SMAC proliferation, cell invasion and R-{D-Arg}-RK-1E14 >100 interaction with it metastasis, modulates inflammatory Nucleus signaling, (Cytosol, nucleus and […]

Compound | IC50
Cc1cc(O)cc(C)c1C[C@H](NC(=O)[C@@H](CCCNC(=N)N)NC(=O)[C@H](CC(C)C)NC(=O)[C@H](CCCNC(=N)N)NC(=O)[C@H](C)NC(=O)[C@H](Cc1c[nH]c2ccccc12)NC(=O)[C@H](CC(C)C)NC(=O)[C@H](CO)NC(=O)[C@@H]1CCCN1C(=O)[C@@H](NC(=O)CNC(=O)[C@H](Cc1ccc(O)cc1)NC(=O)[C@@H](NC(=O)[C@@H](NC(=O)[C@H](CCCNC(=N)N)NC(=O)[C@H](C)NC(=O)[C@H](CCCNC(=N)N)NC(=O)[C@@H]1CCCN1C(=O)[C@H](CC(=O)O)NC(=O)[C@H](CO)NC(=O)[C@@H](NC(=O)CNC(=O)[C@H](CO)NC(=O)[C@@H](NC(=O)[C@H](CC(C)C)NC(=O)[C@H](CC(C)C)NC(=O)[C@H](C)N)[C@@H](C)O)[C@@H](C)O)C(C)C)[C@@H](C)O)[C@@H](C)O)C(=O)N[C@@H](CCCN)C(=O)N[C@@H](Cc1ccccc1)C(N)=O [1C11-D-Arg–Dmt–Orn–Phe] (H-ALLTSGTSDPRARVTYGTPSLWARL[dR][Dmt][Orn]F-NH2; N-terminus and C-terminus assumed) | 30.3 ± 5.5 µM
CC(C)C[C@H](NC(=O)[C@H](C)N)C(=O)N[C@@H](CC(C)C)C(=O)N[C@H](C(=O)N[C@@H](CO)C(=O)NCC(=O)N[C@H](C(=O)N[C@@H](CO)C(=O)N[C@@H](CC(=O)O)C(=O)N1CCC[C@H]1C(=O)N[C@@H](CCCNC(=N)N)C(=O)N[C@@H](C)C(=O)N[C@@H](CCCNC(=N)N)C(=O)N[C@H](C(=O)N[C@H](C(=O)N[C@@H](Cc1ccc(O)cc1)C(=O)NCC(=O)N[C@H](C(=O)N1CCC[C@H]1C(=O)N[C@@H](CO)C(=O)N[C@@H](CC(C)C)C(=O)N[C@@H](Cc1c[nH]c2ccccc12)C(=O)N[C@@H](C)C(=O)N[C@@H](CCCNC(=N)N)C(=O)N[C@@H](CC(C)C)C(=O)N[C@@H](CCCNC(=N)N)C(=O)N[C@H](CCCNC(=N)N)C(=O)N[C@@H](CCCNC(=N)N)C(=O)N[C@@H](CCCCN)C(=O)O)[C@@H](C)O)[C@@H](C)O)C(C)C)[C@@H](C)O)[C@@H](C)O [1C11-R-{D-Arg}-RK] (H-ALLTSGTSDPRARVTYGTPSLWARLR[dR]RK-OH; N-terminus and C-terminus assumed) | 30 µM
CSCC[C@H](NC(=O)[C@H](CCCNC(=N)N)NC(=O)[C@H](Cc1ccc(O)cc1)NC(=O)[C@H](CC(C)C)NC(=O)[C@@H](N)CCC(=O)O)C(=O)N[C@@H](CO)C(=O)N[C@H](C(=O)N[C@@H](Cc1ccc(O)cc1)C(=O)N[C@@H](CO)C(=O)N[C@H](C(=O)N[C@@H](Cc1ccccc1)C(=O)N1CCC[C@H]1C(=O)N[C@@H](C)C(=O)NCC(=O)N[C@H](C(=O)N1CCC[C@H]1C(=O)N[C@H](C(=O)N[C@@H](CO)C(=O)N[C@@H](CCC(=O)O)C(=O)N[C@@H](CCCNC(=N)N)C(=O)N[C@@H](CO)C(=O)N[C@@H](CC(C)C)C(=O)N[C@@H](C)C(=O)N[C@@H](CCCNC(=N)N)C(=O)N[C@@H](C)C(=O)N[C@H](CCCNC(=N)N)C(=O)N[C@@H](Cc1c(C)cc(O)cc1C)C(=O)N[C@@H](CCCN)C(=O)N[C@@H](Cc1ccccc1)C(N)=O)C(C)C)C(C)C)[C@@H](C)O)[C@@H](C)O [1E14-D-Arg–Dmt–Orn–Phe] (H-ELYRMSTYSTFPAGVPVSERSLARA[dR][Dmt][Orn]F-NH2; N-terminus and C-terminus assumed) | > 100 µM
CC[C@H](C)[C@H](NC(=O)[C@@H]1CCCN1C(=O)[C@H](CO)NC(=O)[C@H](CO)NC(=O)[C@@H](NC(=O)[C@H](CO)NC(=O)[C@H](CC(C)C)NC(=O)[C@H](C)N)[C@@H](C)O)C(=O)N1CCC[C@H]1C(=O)N[C@@H](CO)C(=O)N[C@H](C(=O)N1CCC[C@H]1C(=O)N[C@@H](CCC(N)=O)C(=O)N[C@@H](CO)C(=O)N[C@@H](CCC(N)=O)C(=O)N[C@@H](C)C(=O)N[C@@H](CCC(N)=O)C(=O)N1CCC[C@H]1C(=O)N[C@@H](CCC(N)=O)C(=O)N[C@H](C(=O)NCC(=O)N[C@@H](CO)C(=O)NCC(=O)N[C@@H](C)C(=O)N[C@@H](CO)C(=O)N[C@@H](CCCNC(=N)N)C(=O)N[C@H](CCCNC(=N)N)C(=O)N[C@@H](CCCNC(=N)N)C(=O)N[C@@H](CCCCN)C(=O)O)[C@@H](C)O)C(C)C [2F3-R-{D-Arg}-RK] (H-ALSTSSPIPSVPQSQAQPQTGSGASR[dR]RK-OH; N-terminus and C-terminus assumed) | 29.6 ± 0.6 µM

Same assay, conditions: A549 cells, 24 h, serum‐free medium, SRB; read-out: IC50, cell proliferation inhibition

Compound | IC50
2F3 -D-Arg–Dmt–Orn–Phe | 19.6 µM
CC[C@H](C)[C@H](NC(=O)[C@@H]1CCCN1C(=O)[C@H](CO)NC(=O)[C@H](CO)NC(=O)[C@@H](NC(=O)[C@H](CO)NC(=O)[C@H](CC(C)C)NC(=O)[C@H](C)N)[C@@H](C)O)C(=O)N1CCC[C@H]1C(=O)N[C@@H](CO)C(=O)N[C@H](C(=O)N1CCC[C@H]1C(=O)N[C@@H](CCC(N)=O)C(=O)N[C@@H](CO)C(=O)N[C@@H](CCC(N)=O)C(=O)N[C@@H](C)C(=O)N[C@@H](CCC(N)=O)C(=O)N1CCC[C@H]1C(=O)N[C@@H](CCC(N)=O)C(=O)N[C@H](C(=O)NCC(=O)N[C@@H](CO)C(=O)NCC(=O)N[C@@H](C)C(=O)N[C@@H](CO)C(=O)N[C@@H](CCCNC(=N)N)C(=O)N[C@H](CCCNC(=N)N)C(=O)N[C@@H](CCCNC(=N)N)C(=O)N[C@@H](CCCCN)C(=O)O)[C@@H](C)O)C(C)C [2F3-R-{D-Arg}-RK] (H-ALSTSSPIPSVPQSQAQPQTGSGASR[dR]RK-OH; N-terminus and C-terminus assumed) | 19.6 µM
